Here are results for two compounds from patent US6126966A (Sequus Pharmaceuticals, Inc., priority 1999, dated 2000).

The conditions of series [1]: preclinical studies; Weiss, et al., 1993; cited from earlier work.
Another series concerns C26 colon tumor. Put plainly: C26 colon tumor model, altered dosing schedule (FIG. 6). The following applies: IV, days 12, 19, 26, free cisplatin 6 mg/kg, liposomal 6, 12/4/4 or 14/4/4 mg/kg. The format is in vivo, mice (Balb/c, male). As for the experimental part: That is, liposome-entrapped cisplatin was administered with a larger loading dose followed by smaller doses at the second and third weeks.
The C26 colon tumor model was grown in Balb/c, male mice (Simonson Laboratories, Inc., Gilroy, Calif.). Tumors were harvested from donor mice for and minced finely in RPMI media with 10% fetal calf serum (FCS). Tumors were then digested with enzyme mix (10 ml 0.25% protease type IX and 0.25% collagenase type IV in Hank's balanced salt solution (HBSS) and 0.2% ml 0.02% DNase in HBSS) for 30-60 minutes at 37° C. Single cell suspension of tumor cells was washed twice in RPMI media with FCS, concentrated by centrifugation and resuspended in RPMI media with FCS for inoculation. One million tumor cells (0.1 ml) were inoculated in the left flank of 5-6 week old mice.
2. Altered Dosing Schedule. Mice were inoculated with the C26 colon tumor cells according to the above-described procedure. Treatment of the tumor-bearing mice was initiated when the majority of animals had palpable tumors mass of about 100 mm^3.
Cisplatin entrapped in liposomes, prepared as described above, was administered intravenously according to three dosing schedules to tumor-bearing mice. […] The control group (n=5) received saline on each treatment day.

The next series relates to Lewis lung carcinoma. Put plainly: Lewis lung tumor model (FIG. 7). In kind it is in vivo, mice (B6C3-F1, male). As to conditions: days 7, 14, 21, free cisplatin 6 mg/kg, liposomal 12 mg/kg. On the procedure: Mice bearing the Lewis lung carcinoma tumor model were treated with cisplatin, administered intravenously and intraperitoneally, or with liposome-entrapped cisplatin, administered similarly. […] A control group of tumor-bearing mice were treated with saline.
The Lewis lung tumor (LL/2, CRL-1642, ATCC, Rockville, Md.) model was grown in G6C3-F1, male mice (Simonson Laboratories, Inc., Gilroy, Calif.). Tumors were harvested from donor mice and processed as above for inoculation of an experiment. One million tumor cells (0.1 ml) were inoculated in the left flank of 5-6 week old, male, B6C3-F1 mice.
Treatment of the tumor-bearing animals was initiated seven days after inoculation, when the majority of animals had palpable tumor masses.
The control group (n=9) received saline on the treatment days (days 7, 14 and 21).

For series [2] the following is noted: IV, once per week for 3 weeks, mice; cited from earlier work.
For series [3] the following is noted: Freise, et al., 1982; cited from earlier work.
For series [4], the system named is tumor models in laboratory animals and human tumors. The following applies: Sur 1983; Steerenberg 1987; cited from earlier work.
Series [5] relates to squamous cell cancer of the head and neck. As to conditions: 80 mg/m^2, 24-hour intravenous infusion; Prestayko, 1991; cited from earlier work.

SMILES strings stand for the structures.

With `N.N.O=C([O-])C1(C(=O)[O-])CCC1.[Pt+2]` [carboplatin, 1,1-cyclobutane-dicarboxylate-diammineplatinum], in series [1], the “antitumor activity relative to cisplatin” value is “equivalent or greater antitumor activity than cisplatin” and the “nephrotoxicity relative to cisplatin” value was “less nephrotoxicity”.
Consider `N.N.[Cl][Pt][Cl]` [cisplatin, cis-diamine-dichloroplatinum (II)], for which, in the series with C26 colon tumor, the tumor mass result is listed as “continual increase in tumor mass”. For the same compound, the “antitumor response, IV vs IP administration” value in the series with Lewis lung carcinoma is reported as “similar”. For the same compound, the maximally tolerated dose in series [2] was 6 mg/kg. Moreover, the “excretion via the kidneys” value in series [3] is “rapid excretion via the kidneys”. Besides, the antitumor effectiveness result in series [4] was “highly effective in the treatment of tumor models in laboratory animals and in human tumors”. Further, the clinical response entry in series [5] is reported as “favorable response”.
